Assay results taken from PubChem BioAssay (NCI).
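Each compound was tested at five concentrations against cells in 96-well plates for 48 hours. At the GI50, growth is halved. At the TGI there is no net growth.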

Legend:
Assay in all cases: inhibition of tumour cell growth, NCI panel, 48 h
[1] = test system: M14 melanoma
[2] = test system: DU-145 prostate
[3] = test system: SN12C renal
[4] = test system: NCI-H226 lung
[5] = test system: UACC-257 melanoma
[6] = test system: EKVX NSCLC
[7] = test system: T-47D breast
[8] = test system: MCF7 breast
[9] = test system: SNB-19 CNS
[10] = test system: PC-3 prostate
[11] = test system: A498 renal
[12] = test system: HT29 colon
[13] = test system: A549 NSCLC
[14] = test system: UACC-62 melanoma
[15] = test system: NCI-H460 lung
[16] = test system: KM12 colon
[17] = test system: IGROV1 ovarian
[18] = test system: RXF 393 renal
[19] = test system: NCI-H522 lung
[20] = test system: CAKI-1 renal
[21] = test system: NCI/ADR-RES ovarian
[22] = test system: 786-0 renal
[23] = test system: SK-MEL-5 melanoma
[24] = test system: TK-10 renal
[25] = test system: HOP-62 NSCLC
[26] = test system: ACHN renal
[27] = test system: UO-31 renal
[28] = test system: OVCAR-8 ovarian
[29] = test system: U251 CNS
[30] = test system: LOX IMVI melanoma
[31] = test system: SK-MEL-2 melanoma
[32] = test system: HCT-116 colon
[33] = test system: MDA-N
[34] = test system: HL-60(TB) leukemia
[35] = test system: SK-MEL-28 melanoma
[36] = test system: HCT-15 colon
[37] = test system: SK-OV-3 ovarian
[38] = test system: SW-620 colon
[39] = test system: NCI-H23 lung
[40] = test system: OVCAR-3 ovarian
[41] = test system: OVCAR-5 ovarian
[42] = test system: MALME-3M melanoma
[43] = test system: BT-549 breast
[44] = test system: SF-295 CNS
[45] = test system: MDA-MB-435
[46] = test system: HCC-2998 colon
[47] = test system: SNB-75 CNS
[48] = test system: MDA-MB-231 breast
[49] = test system: HS 578T breast
[50] = test system: SF-539 CNS
[51] = test system: COLO 205 colon
[52] = test system: HOP-92 NSCLC
[53] = test system: K-562 leukemia
[54] = test system: SR leukemia
[55] = test system: SF-268 CNS
[56] = test system: MOLT-4 leukemia
[57] = test system: RPMI-8226 leukemia
[58] = test system: OVCAR-4 ovarian
[59] = test system: CCRF-CEM leukemia

COc1ccc2cc(CNCCCCCCNCc3ccc4cc(OC)ccc4c3)ccc2c1
TGI [1]: 315 nM
TGI [2]: 2990 nM
TGI [3]: 2670 nM
TGI [4]: 3490 nM
TGI [5]: 3340 nM
TGI [6]: 2740 nM
TGI [7]: 2070 nM
TGI [8]: 1200 nM
TGI [9]: 1870 nM
TGI [10]: 918 nM
TGI [11]: 2990 nM
TGI [12]: 383 nM
TGI [13]: 3440 nM
TGI [14]: 2800 nM
TGI [15]: 940 nM
TGI [16]: 511 nM
TGI [17]: 3150 nM
TGI [18]: 3070 nM
TGI [19]: 1760 nM
TGI [20]: 2710 nM
TGI [21]: 2740 nM
TGI [22]: 2480 nM
TGI [23]: 2670 nM
TGI [24]: 3280 nM
TGI [25]: 3070 nM
TGI [26]: 2920 nM
TGI [27]: 3010 nM
TGI [28]: 1150 nM
TGI [29]: 601 nM
TGI [30]: 325 nM
TGI [31]: 2640 nM
TGI [32]: 324 nM
TGI [33]: 360 nM
TGI [34]: 396 nM
TGI [35]: 1420 nM
TGI [36]: 1390 nM
TGI [37]: 3240 nM
TGI [38]: 351 nM
TGI [39]: 3800 nM
TGI [40]: 1170 nM
TGI [41]: 2030 nM
TGI [42]: 2620 nM
TGI [43]: 3140 nM
TGI [44]: 961 nM
TGI [45]: 497 nM
TGI [46]: 277 nM
TGI [47]: 2660 nM
TGI [48]: 1380 nM
TGI [49]: 3620 nM
TGI [50]: 3050 nM
TGI [51]: 291 nM

COc1ccc(C(O)c2cc3c(N)c(C(=O)Nc4cccc(Cl)c4)sc3nc2C)cc1 (stereo not drawn)
GI50 [1]: 731 nM
TGI [1]: > 36500 nM
GI50 [2]: 1160 nM
TGI [2]: > 22000 nM
GI50 [3]: 2020 nM
TGI [3]: > 72700 nM
GI50 [4]: 1630 nM
TGI [4]: > 43000 nM
GI50 [52]: 3660 nM
TGI [52]: > 39900 nM
GI50 [5]: 8600 nM
TGI [5]: 81000 nM
GI50 [6]: 1880 nM
TGI [6]: > 86900 nM
GI50 [7]: 1150 nM
TGI [7]: 31900 nM
GI50 [8]: 1110 nM
TGI [8]: > 67200 nM
GI50 [9]: 1470 nM
TGI [9]: > 46800 nM
GI50 [10]: 1560 nM
TGI [10]: > 40400 nM
GI50 [11]: 659 nM
TGI [11]: 2380 nM
GI50 [12]: 1080 nM
TGI [12]: > 33400 nM
GI50 [13]: 1450 nM
TGI [13]: > 39700 nM
GI50 [53]: 1030 nM
TGI [53]: > 37500 nM
GI50 [14]: 2140 nM
TGI [14]: > 80200 nM
GI50 [15]: 1060 nM
TGI [15]: 5530 nM
GI50 [16]: 1100 nM
TGI [16]: > 33400 nM
GI50 [17]: 2520 nM
TGI [17]: > 56000 nM
GI50 [18]: 310 nM
TGI [18]: 1760 nM
GI50 [54]: 339 nM
GI50 [55]: 2790 nM
TGI [55]: > 46200 nM
GI50 [19]: 1050 nM
TGI [19]: > 41900 nM
GI50 [20]: 1270 nM
TGI [20]: > 39400 nM
GI50 [56]: 1540 nM
TGI [56]: > 43300 nM
GI50 [21]: 1110 nM
TGI [21]: > 36100 nM
GI50 [22]: 1670 nM
TGI [22]: > 39600 nM
GI50 [23]: 1170 nM
TGI [23]: > 32000 nM
TGI [24]: > 50300 nM
GI50 [25]: 617 nM
TGI [25]: 19900 nM
GI50 [26]: 2300 nM
TGI [26]: > 42400 nM
GI50 [27]: 2410 nM
TGI [27]: > 56200 nM
GI50 [28]: 1450 nM
TGI [28]: > 47800 nM
GI50 [29]: 1140 nM
TGI [29]: > 37800 nM
GI50 [30]: 1710 nM
TGI [30]: > 40700 nM
GI50 [31]: 1290 nM
TGI [31]: 42700 nM
GI50 [57]: 3210 nM
TGI [57]: > 100000 nM
GI50 [58]: 2590 nM
TGI [58]: > 51700 nM
GI50 [32]: 921 nM
TGI [32]: > 33100 nM
GI50 [34]: 868 nM
TGI [34]: 2780 nM
GI50 [35]: 1230 nM
TGI [35]: 55000 nM
GI50 [36]: 1180 nM
TGI [36]: > 49200 nM
GI50 [37]: 1780 nM
TGI [37]: > 40500 nM
GI50 [38]: 1000 nM
TGI [38]: > 38300 nM
GI50 [39]: 1820 nM
TGI [39]: > 50100 nM
GI50 [40]: 843 nM
TGI [40]: 2340 nM
GI50 [41]: 1980 nM
TGI [41]: > 48700 nM
GI50 [42]: 2480 nM
TGI [42]: > 73400 nM
GI50 [43]: 2090 nM
TGI [43]: > 38500 nM
GI50 [44]: 1120 nM
TGI [44]: > 22700 nM
GI50 [45]: 37.1 nM
TGI [45]: 262 nM
GI50 [46]: 1760 nM
TGI [46]: > 35900 nM
GI50 [47]: 220 nM
TGI [47]: 16600 nM
GI50 [48]: 1410 nM
TGI [48]: > 33100 nM
GI50 [49]: 825 nM
GI50 [50]: 858 nM
GI50 [59]: 1130 nM
TGI [59]: > 100000 nM
GI50 [51]: 2790 nM
TGI [51]: 25200 nM
